Assay results reported in PubChem BioAssay AID248 (DTP/NCI, 2004).
Values joined by “and” are separate entries in the source; they are usually repeats but may differ in a detail not shown here. Identical values can stand only once. Toxic doses and inconclusive results are not listed. No stated cut-off is given here; in the data, active means T/C of 150% or more; inactive means T/C below 125%.

System: L1210 leukemia ip in BDF1 mice, survival T/C
Experiment: NCI In Vivo Anticancer Drug Screen. Data for tumor model L1210 Leukemia (intraperitoneal) in B6D2F1 (BDF1) mice
Conditions: endpoint: mean survival time, higher = longer survival
Procedure, shortened: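 Tumor cells were implanted, animals were treated, and survival was followed. The result divides the treated measurement by the vehicle-control measurement.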

[1] = dose: 100.0 mg/kg/injection, schedule: Q01DX009 (ip), vehicle: Klucel (hydroxypropylcellulose) (HPC)
[2] = dose: 200.0 mg/kg/injection, schedule: Q01DX009 (ip), vehicle: Klucel (hydroxypropylcellulose) (HPC)
[3] = dose: 400.0 mg/kg/injection, schedule: Q01DX009 (ip), vehicle: Klucel (hydroxypropylcellulose) (HPC)
[4] = dose: 100.0 mg/kg/injection, schedule: Q04DX003 (ip), vehicle: saline with Tween-80
[5] = dose: 200.0 mg/kg/injection, schedule: Q04DX003 (ip), vehicle: saline with Tween-80
[6] = dose: 75.0 mg/kg/injection, schedule: Q01DX001 (ip), vehicle: saline
[7] = dose: 150.0 mg/kg/injection, schedule: Q01DX001 (ip), vehicle: saline
[8] = dose: 100.0 mg/kg/injection, schedule: Q01DX009 (ip), vehicle: saline with Tween-80
[9] = dose: 200.0 mg/kg/injection, schedule: Q01DX009 (ip), vehicle: saline with Tween-80
[10] = dose: 400.0 mg/kg/injection, schedule: Q01DX009 (ip), vehicle: saline with Tween-80

Measured: T/C

O=[N+]([O-])c1ccc(C(Cl)S(=O)(=O)c2ccccc2)cc1 (stereo unspecified)
inactive: dose: 50.0 mg/kg/injection, schedule: Q01DX001 (ip), vehicle: saline 100 % of control | dose: 50.0 mg/kg/injection, schedule: Q01DX009 (ip), vehicle: Klucel (hydroxypropylcellulose) (HPC) 103 % of control | dose: 50.0 mg/kg/injection, schedule: Q04DX003 (ip), vehicle: Klucel (hydroxypropylcellulose) (HPC) 99 % of control | dose: 100.0 mg/kg/injection, schedule: Q01DX001 (ip), vehicle: saline 108 % of control | [1] 92 % of control | dose: 100.0 mg/kg/injection, schedule: Q04DX002 (ip), vehicle: Klucel (hydroxypropylcellulose) (HPC) 93 % of control and 100 % of control | dose: 100.0 mg/kg/injection, schedule: Q04DX003 (ip), vehicle: Klucel (hydroxypropylcellulose) (HPC) 111 % of control | dose: 119.0 mg/kg/injection, schedule: Q01DX001 (ip), vehicle: Klucel (hydroxypropylcellulose) (HPC) 105 % of control | dose: 178.0 mg/kg/injection, schedule: Q01DX001 (ip), vehicle: Klucel (hydroxypropylcellulose) (HPC) 100 % of control | dose: 200.0 mg/kg/injection, schedule: Q01DX001 (ip), vehicle: saline 97 % of control | [2] 97 % of control | dose: 200.0 mg/kg/injection, schedule: Q04DX002 (ip), vehicle: Klucel (hydroxypropylcellulose) (HPC) 100 % of control | dose: 200.0 mg/kg/injection, schedule: Q04DX003 (ip), vehicle: Klucel (hydroxypropylcellulose) (HPC) 107 % of control | dose: 266.0 mg/kg/injection, schedule: Q01DX001 (ip), vehicle: Klucel (hydroxypropylcellulose) (HPC) 100 % of control | dose: 400.0 mg/kg/injection, schedule: Q01DX001 (ip), vehicle: Klucel (hydroxypropylcellulose) (HPC) 97 % of control | dose: 400.0 mg/kg/injection, schedule: Q01DX001 (ip), vehicle: saline 95 % of control | [3] 92 % of control | dose: 400.0 mg/kg/injection, schedule: Q04DX003 (ip), vehicle: Klucel (hydroxypropylcellulose) (HPC) 101 % of control | dose: 600.0 mg/kg/injection, schedule: Q01DX001 (ip), vehicle: Klucel (hydroxypropylcellulose) (HPC) 94 % of control | dose: 600.0 mg/kg/injection, schedule: Q04DX002 (ip), vehicle: Klucel (hydroxypropylcellulose) (HPC) 100 % of control

COc1ccc2c3c(c4cc(OC)c(OC)cc4c2c1)C[C@H]1CCCCN1C3
inactive: dose: 0.06 mg/kg/injection, schedule: Q01DX Z (ip), vehicle: carboxymethylcellulose (CMC) 103 % of control | dose: 0.12 mg/kg/injection, schedule: Q01DX Z (ip), vehicle: carboxymethylcellulose (CMC) 108 % of control | dose: 0.25 mg/kg/injection, schedule: Q01DX Z (ip), vehicle: carboxymethylcellulose (CMC) 105 % of control | dose: 0.25 mg/kg/injection, schedule: Q01DX Z (ip), vehicle: other 116 % of control | dose: 0.5 mg/kg/injection, schedule: Q01DX Z (ip), vehicle: carboxymethylcellulose (CMC) 114 % of control and 124 % of control | dose: 0.5 mg/kg/injection, schedule: Q01DX Z (ip), vehicle: other 123 % of control | dose: 0.5 mg/kg/injection, schedule: Q01DX Z (ip), vehicle: saline 115 % of control | dose: 1.0 mg/kg/injection, schedule: Q01DX001 (ip), vehicle: saline 105 % of control | dose: 1.0 mg/kg/injection, schedule: Q01DX Z (ip), vehicle: carboxymethylcellulose (CMC) 122 % of control | dose: 1.0 mg/kg/injection, schedule: Q01DX Z (ip), vehicle: saline 115 % of control | dose: 2.0 mg/kg/injection, schedule: Q01DX001 (ip), vehicle: saline 105 % of control | dose: 2.0 mg/kg/injection, schedule: Q01DX Z (ip), vehicle: other 88 % of control | dose: 4.0 mg/kg/injection, schedule: Q01DX001 (ip), vehicle: saline 111 % of control

CCOC(=O)c1cnc(SC)nc1Nc1ccccc1Cl
inactive: [4] 87 % of control | [5] 87 % of control

CN1CC2CCCCC1C2OC(=O)C(c1ccccc1)c1ccccc1 (stereo unspecified)
inactive: [6] 110 % of control | [7] 101 % of control

COC(=O)N1C=CC2C=CC1C(C#N)(C#N)C2(C#N)C#N (stereo unspecified)
inactive: dose: 12.5 mg/kg/injection, schedule: Q04DX002 (ip), vehicle: Klucel (hydroxypropylcellulose) (HPC) 98 % of control | dose: 25.0 mg/kg/injection, schedule: Q04DX002 (ip), vehicle: Klucel (hydroxypropylcellulose) (HPC) 98 % of control | dose: 50.0 mg/kg/injection, schedule: Q04DX002 (ip), vehicle: Klucel (hydroxypropylcellulose) (HPC) 110 % of control

CC/C=C(\C)C1(CCC)C(=O)NC(=O)NC1=O
inactive: [6] 102 % of control | [7] 107 % of control

CSCCCNC(=O)NS(=O)(=O)c1ccc(C)cc1
inactive: [4] 97 % of control | [5] 100 % of control | dose: 400.0 mg/kg/injection, schedule: Q04DX003 (ip), vehicle: saline with Tween-80 97 % of control

C[C@]12CCC(=O)C=C1CC[C@@H]1[C@@H]2[C@@H](O)C[C@@]2(C)[C@H]1CC[C@]2(O)C(=O)COC(=O)CCC1CCCC1
inactive: dose: 50.0 mg/kg/injection, schedule: Q04DX003 (sc), vehicle: steriod suspending solution 100 % of control | dose: 100.0 mg/kg/injection, schedule: Q04DX003 (sc), vehicle: steriod suspending solution 96 % of control | dose: 200.0 mg/kg/injection, schedule: Q04DX003 (sc), vehicle: steriod suspending solution 97 % of control | dose: 400.0 mg/kg/injection, schedule: Q04DX003 (sc), vehicle: steriod suspending solution 96 % of control

C(=N\Nc1nc2ccccc2s1)/c1ccccc1
inactive: [1] 95 % of control | [2] 102 % of control | [3] 100 % of control

CCc1ccc(N=C(C)c2c(O)cc(C)oc2=O)cc1
inactive: [1] 96 % of control | [2] 100 % of control | [3] 96 % of control

CCCCCCCSc1ccc(C(=O)O)cc1
inactive: dose: 37.5 mg/kg/injection, schedule: Q01DX009 (ip), vehicle: saline 91 % of control | dose: 75.0 mg/kg/injection, schedule: Q01DX001 (ip), vehicle: acetone 102 % of control | dose: 75.0 mg/kg/injection, schedule: Q01DX009 (ip), vehicle: saline 97 % of control | dose: 75.0 mg/kg/injection, schedule: Q04DX003 (ip), vehicle: acetone 102 % of control | dose: 150.0 mg/kg/injection, schedule: Q01DX001 (ip), vehicle: acetone 95 % of control | dose: 150.0 mg/kg/injection, schedule: Q01DX009 (ip), vehicle: saline 90 % of control | dose: 150.0 mg/kg/injection, schedule: Q04DX003 (ip), vehicle: acetone 102 % of control | dose: 300.0 mg/kg/injection, schedule: Q01DX001 (ip), vehicle: acetone 98 % of control | dose: 300.0 mg/kg/injection, schedule: Q04DX003 (ip), vehicle: acetone 102 % of control

Clc1ccc2nc(/C=C/c3ccccc3)ccc2c1
inactive: dose: 100.0 mg/kg/injection, schedule: Q01DX001 (ip), vehicle: other 95 % of control | dose: 200.0 mg/kg/injection, schedule: Q01DX001 (ip), vehicle: other 104 % of control | dose: 400.0 mg/kg/injection, schedule: Q01DX001 (ip), vehicle: other 98 % of control

COc1cc(/C=C(/C#N)C(N)=O)cc(OC)c1OC
inactive: [8] 93 % of control | dose: 100.0 mg/kg/injection, schedule: Q04DX002 (ip), vehicle: saline with Tween-80 97 % of control | [9] 93 % of control | dose: 200.0 mg/kg/injection, schedule: Q04DX002 (ip), vehicle: saline with Tween-80 93 % of control | [10] 95 % of control | dose: 400.0 mg/kg/injection, schedule: Q04DX002 (ip), vehicle: saline with Tween-80 97 % of control

Cc1ccc(S(=O)(=O)Nc2ccccc2-c2nc3cc(Cl)ccc3c(=O)o2)cc1
inactive: [8] 86 % of control | [9] 87 % of control | [10] 89 % of control
